Where two headings read alike, the source gives them in different places.
Legend:
[1] = tested on: HIV-1 Env pseudovirus CRF02_AG, clone 253; assay: Single-cycle assay TZM-bl, Env pseudovirus panel
[2] = tested on: HIV-1 Env pseudovirus 1054.TC4.1499; assay: Single-cycle assay TZM-bl, Env pseudovirus panel; settings: TZM-bl
[3] = tested on: HIV-1 Env pseudovirus QA790.204I.ENV.C8; assay: Single-cycle assay TZM-bl, Env pseudovirus panel; settings: TZM-bl
[4] = tested on: HIV-1 Env pseudovirus QA790.204I.ENV.E2; assay: Single-cycle assay TZM-bl, Env pseudovirus panel; settings: TZM-bl
[5] = tested on: HIV-1 Env pseudovirus QD435.100M.ENV.E1; assay: Single-cycle assay TZM-bl, Env pseudovirus panel
[6] = tested on: HIV-1 Env pseudovirus 9021_14.B2.4571; assay: Single-cycle assay TZM-bl, Env pseudovirus panel; settings: TZM-bl
[7] = tested on: HIV-1 Env pseudovirus MI206.W0M.ENV.D1; assay: Single-cycle assay, Paired Infant and Maternal Env clones
[8] = tested on: HIV-1 Env pseudovirus Q259ENV.W6; assay: Single-cycle assay TZM-bl, Env pseudovirus panel; settings: TZM-bl
[9] = tested on: HIV-1 Env pseudovirus RHPA4259, clone 7; assay: Single-cycle assay TZM-bl, Env pseudovirus panel; settings: TZM-bl
Cytotoxicity [10] = type: cell-based, human; settings: human, freshly isolated and stimulated uninfected PBMC
Cytotoxicity [11] = type: cell-based; settings: human, U87-CD4-CCR5 cells
[12] = tested on: HIV-1 Env pseudovirus QF495.23M.ENV.A3; assay: Single-cycle assay TZM-bl, Env pseudovirus panel; settings: TZM-bl
[13] = tested on: HIV-1 Env pseudovirus MG505.W0M.ENV.A2; assay: Single-cycle assay, Paired Infant and Maternal Env clones
[14] = tested on: HIV-1 Env pseudovirus QA790.204I.ENV.A4; assay: Single-cycle assay TZM-bl, Env pseudovirus panel; settings: TZM-bl
[15] = tested on: HIV-1 Env pseudovirus CRF02_AG, clone 257; assay: Single-cycle assay TZM-bl, Env pseudovirus panel; settings: TZM-bl
[16] = tested on: HIV-1 Env pseudovirus HIV-25925-2, clone 22; assay: Single-cycle assay TZM-bl, Env pseudovirus panel
[17] = tested on: HIV-1 Env pseudovirus HIV-25711-2, clone 4; assay: Single-cycle assay TZM-bl, Env pseudovirus panel; settings: TZM-bl
[18] = tested on: HIV-1 Env pseudovirus QG393.60M.ENV.B7; assay: Single-cycle assay TZM-bl, Env pseudovirus panel; settings: TZM-bl
[19] = tested on: HIV-1 Env pseudovirus HIV-00836-2, clone 5; assay: Single-cycle assay TZM-bl, Env pseudovirus panel; settings: TZM-bl
[20] = biological target: HIV-1 Reverse Transcriptase (RT) (Human immunodeficiency virus type 1 group M subtype B, UniProt P04585); assay: biochemical; type: biochemical
[21] = tested on: HIV-1 Env pseudovirus PVO, clone 4; assay: Single-cycle assay TZM-bl, Env pseudovirus panel; settings: TZM-bl
[22] = tested on: HIV-1 Env pseudovirus QB726.70M.ENV.C4; assay: Single-cycle assay TZM-bl, Env pseudovirus panel; settings: TZM-bl
[23] = tested on: HIV-1 Env pseudovirus QA013.70I.ENV.H1; assay: Single-cycle assay TZM-bl, Env pseudovirus panel; settings: TZM-bl
[24] = tested on: HIV-1 Env pseudovirus CAP210.2.00.E8; assay: Single-cycle assay TZM-bl, Env pseudovirus panel; settings: TZM-bl
[25] = tested on: HIV-1 Env pseudovirus B1206.W6P.ENV.A1A; assay: Single-cycle assay, Paired Infant and Maternal Env clones
[26] = tested on: HIV-1 panel of Paired Infant (B) and Maternal (M) Env Molecular Clones; assay: Single-cycle assay, means over Paired Infant and Maternal Env clones
[27] = tested on: HIV-1 Env pseudovirus WEAUd15.410.5017; assay: Single-cycle assay TZM-bl, Env pseudovirus panel; settings: TZM-bl
[28] = tested on: HIV-1 Env pseudovirus BG505-T332N; assay: Single-cycle assay TZM-bl, Env pseudovirus panel; settings: TZM-bl
[29] = tested on: HIV-1 Env pseudovirus BG505.W6M.ENV.C2; assay: Single-cycle assay, Paired Infant and Maternal Env clones
[30] = tested on: control pseudovirus VSV-G; assay: microbe, parasite or virus in culture; type: cell-based; settings: Pseudovirus, U87/CD4/CCR5
[31] = tested on: HIV-1 Env pseudovirus ZM109F.PB4; assay: Single-cycle assay TZM-bl, Env pseudovirus panel; settings: TZM-bl
[32] = tested on: HIV-1 Env pseudovirus BK184.W6M.ENV.D2; assay: Single-cycle assay, Paired Infant and Maternal Env clones
[33] = tested on: HIV-1 Env pseudovirus CRF02_AG, clone 33; assay: Single-cycle assay TZM-bl, Env pseudovirus panel; settings: TZM-bl
[34] = tested on: HIV-1 Env pseudovirus MK184.W0M.ENV.E4; assay: Single-cycle assay, Paired Infant and Maternal Env clones
[35] = Human immunodeficiency virus 1, read-out: IC50 Mean ± SEM: Infant (B)
[36] = Human immunodeficiency virus 1, read-out: IC50 Mean ± SEM: Mother (M)
[37] = Human immunodeficiency virus 1, read-out: IC50 Mean ± SEM: Overall (n=10)

Row | Structure (SMILES) | IC50 [1] [µM] | IC50 [2] [µM] | IC50 [3] [µM] | IC50 [4] [µM] | IC50 [5] [µM] | IC50 [6] [µM] | IC50 [7] [µM] | IC50 [8] [µM] | IC50 [9] [µM] | CC50 at 7 days (Cytotoxicity [10]) [µM] | CC50 at 3 days (Cytotoxicity [11]) [µM] | IC50 [12] [µM] | IC50 [13] [µM] | IC50 [14] [µM] | IC50 [15] [µM] | IC50 [16] [µM] | IC50 [17] [µM] | IC50 [18] [µM] | IC50 [19] [µM] | IC50 [21] [µM] | further results
1 | NCC(NC(=O)c1ccc(-c2ccc3c(c2)OCO3)[nH]1)c1ncc(CO)s1 (centres unmarked) [NBD-14123, N-(2-amino-1-(5-(hydroxymethyl)thiazol-2-yl)ethyl)-5-(benzo[d][1,3]dioxol-5-yl)-1H-pyrrole-2-carboxamide] | 3.2 ± 0.2 | 2.4 ± 0.3 | 1.4 ± 0.2 | 2.5 ± 0.3 | 5.3 ± 0.4 | 2.1 ± 0.6 | 3.4 ± 0.3 | 2.3 ± 0.2 | 3.1 ± 0.7 | 61.3 ± 4 | > 100 | 3.3 ± 0.2 | 3.7 ± 0.2 | 1.6 ± 0.1 | 4.4 ± 0.1 | 5.6 ± 0.3 | 5.7 ± 0.7 | 5.9 ± 0.2 | 3.2 ± 0.2 | 1.9 ± 0.2 | IC50 [20]: 39.5 ± 2.8 µM; IC50 [22]: 3.5 ± 0.1 µM; IC50 [23]: 2.5 ± 0.4 µM; IC50 [24]: 5.3 ± 0.2 µM; IC50 [25]: 4.9 ± 0.3 µM; IC50 [26, 35]: 4.2e-06 ± 6e-07 M; IC50 [26, 36]: 4.1e-06 ± 4e-07 M; IC50 [26, 37]: 4.2e-06 ± 3e-07 M; IC50 [27]: 3.4 ± 0.2 µM; IC50 [28]: 4 ± 0.5 µM; IC50 [29]: 4.4 ± 0.1 µM; IC50 [30]: 45.3 ± 2.3 µM; IC50 [31]: 3 ± 0.2 µM; IC50 [32]: 3.6 ± 0.1 µM; IC50 [33]: 3.5 ± 0.4 µM; IC50 [34]: 3.7 ± 0.1 µM
2 | CNCC(NC(=O)c1ccc(-c2ccc3c(c2)OCO3)[nH]1)c1nc(CO)cs1 (centres unmarked) [NBD-14159, 5-(benzo[d][1,3]dioxol-5-yl)-N-(1-(4-(hydroxymethyl)thiazol-2-yl)-2-(methylamino)ethyl)-1H-pyrrole-2-carboxamide] | 3.1 ± 0.1 | 4.1 ± 0.1 | 2.1 ± 0.1 | 3.2 ± 0.2 | 3.5 ± 0.2 | 3.7 ± 0.3 | 3.4 ± 0.2 | 1.3 ± 0.2 | 3.7 ± 0.4 | 68.3 ± 5 | > 100 | 3.7 ± 0.1 | 4.6 ± 0.1 | 4 ± 0.4 | 4.8 ± 0.2 | 4.2 ± 0.5 | 5.8 ± 0.3 | 3.8 ± 0.4 | 4.9 ± 0.3 | 4.3 ± 0.7 | IC50 [22]: 2.7 ± 0.2 µM; IC50 [23]: 4.3 ± 0.7 µM; IC50 [24]: 3.5 ± 0.2 µM; IC50 [25]: 4 ± 0.3 µM; IC50 [26, 35]: 4e-06 ± 3e-07 M; IC50 [26, 36]: 3.8e-06 ± 5e-07 M; IC50 [26, 37]: 3.9e-06 ± 3e-07 M; IC50 [27]: 3.3 ± 0.2 µM; IC50 [28]: 3.3 ± 0.2 µM; IC50 [29]: 4.7 ± 0.5 µM; IC50 [30]: 41.3 ± 3.4 µM; IC50 [31]: 3.3 ± 0.1 µM; IC50 [32]: 4.2 ± 0.1 µM; IC50 [33]: 2.7 ± 0.2 µM; IC50 [34]: 2.6 ± 0.1 µM

— paper PMC6446940 (ChemMedChem, 2018)
